Experimental data: PMC9775322, “An Integrated Analysis of Mechanistic Insights into Biomolecular Interactions and Molecular Dynamics of Bio-Inspired Cu(II) and Zn(II) Complexes towards DNA/BSA/SARS-CoV-2 3CL^pro by Molecular Docking-Based Virtual Screening and FRET Detection” (Biomolecules, 2022)
pIC50: −log10 of the molar value. Several values for one entry are separate records, joined by “and”; a condition that tells them apart may be missing. Equal values may be shown once.

Columns and labels:
CT-DNA [1] = assay: DNA binding affinity by viscometric (hydrodynamic) titration; set-up: species or system calf; conditions: for Relative Specific Viscosity (η/η0)^1/3: DNA 100 µM; for Slope of (η/η0)^1/3 vs [Compound]/[DNA]: linear plot, R 0.2–1.0
Protocol: The hydrodynamic titrations were carried out for all substances along with ethidium bromide (control) at 20, 40, 60, 80, 100 µM concentrations. In the Ostwald viscometer, these substances were also separately treated with the deoxyribonucleic acid solution (100 µM).
2.2.4. Viscometry-based titration for investigation of DNA binding
The Viscometry-based titration measurements were further supportive and delivered data about the binding modes between test compound and DNA base pairs. Nevertheless, it does not deliver definite confirmation for the exact mode of interactions. The experiment performed for all test compounds and ethidium bromide (control) at various concentrations 20, 40, 60, 80, 100 µM and each compound mixed with the CT-DNA solution (100 µM) in the Ostwald viscometer. With an accuracy of 0.01 seconds, a digital stopwatch was used to measure the average flow time. Due to the enhancement of the DNA's overall contour length during the separation of base pairs at intercalation sites, the classical intercalative mode […]
Generally, the compounds may result in less positive/negative or no viscosity change if they bind with DNA base pairs via […]
major or minor grooves [ 26]. […]
compounds via intercalation.

[2] = Hydroxyl radical scavenging assay; format: biochemical; conditions: 230 nm
[3] = system: Chromo bacterium violaceum; assay: Agar disc diffusion antibacterial test; conditions: for diameter of clear zone inhibition / Inhibition %: C, (-) Chromo bacterium violaceum; for diameter of clear zone inhibition: 20 µL of 100 µM on 6 mm disc, Control (DMSO) = 6 mm; for Inhibition %: (T–C)/T × 100
CT-DNA [4] = assay: DNA binding by cyclic voltammetry; set-up: species or system calf; conditions: for Kb, Method II: Cp/Cf vs [DNA]; for Kb, Method III: Ip^2 vs (Ipo^2 − Ip^2)/[DNA]; for Kred/Koxi (Calcd): Nernst equation, Ant.log nEs°/0.0591, n = 1; for Kred/Koxi Found (I): from method I binding constants; for Kb, Method I, Oxi / Kb, Method I, Red: log (1/[DNA]) vs log (I/I0 − I); for Kb, Method I, Oxi: oxidation; for Kb, Method I, Red: reduction; for S (binding site size): method II
Protocol: The CV experiment was carried out for free substances at 10 µM at room temperature with a 5 mM Tris-HCl/50 mM NaCl buffer solution (pH: 7.4). While CT-DNA increases (0–10 µM) in each sample solution, shifts in potential, including variations in the anodic and cathodic peak currents, have been monitored.
2.2.7. Evaluation of DNA interaction properties using cyclic voltammetry technique The electrochemical analysis is a critical entity to examine the electron transfer reactions of the test compounds. With a scan rate of 0.1V, the CHI 620C electrochemical analyzer was utilized with a three-electrode system consisting of glassy carbon as the working electrode, Ag/AgCl as the reference electrode, and platinum wire as the counter/auxiliary electrode to monitor changes in peak current and peak potential during the interaction between test compound and DNA. The changes in peak current and peak potential further afford data on the binding constant as well as the mode of interaction for test compound –DNA adducts. In single-compartment cells of 5 –15 mL, electrochemical titrations for all test compounds were executed at 25 °C in the absence and presence of DNA. The solutions were then deoxygenated by passing them through N 2 before measurements were made. The electrochemical analysis for free compounds was executed at a 10 µM concentration in the presence of 5mM Tr is-HCl /50 mM NaCl (pH = 7.2) buffer solution. Changes in the anodic […]
and cathodic peak currents, as well as potential shifts, have been observed as CT-DNA concentrations in each solution of complexes rise from 1 to 10 µM [32].
I ) = log [DNA] + log Kb (S24)
The peak currents of the chemical in the absence and presence of deoxyribonucleic acid are designated as I0 and I, respectively.
Kb values for all samples were estimated through the linear regression plot of log (1/[DNA]) versus log (I/I0–I) by method-I. Equation (S26) was attained from equation (S25).
Cf and Cb are represented as the free substance concentration and DNA-interacted compound, respectively, and equation (S28) was obtained by comparing equations (S26) and (S27).
Ipa is denoted as the anodic peak current in amperes, n is represented as the number of electrons participating in the redox (M 1+/M2+) process (n=1), The activation coefficient (charge transfer coefficient) is shown by the symbol α. and the value is equal to 0.5, which is a typically supported approximation for numerous quasi-reversible systems.
2.3. DFT and molecular modelling studies
DFT calculations were performed to comprehend the electronic structure and reactivity of ligand (HL) and metal complexes ( 1b-2b) using the Gaussian 09 package [ 34]. Geometries were fully optimized both in the gas phase and methanol solution using B3LYP, and comparatively later with the CAM-B3LYP and M06-2X functionals. For each complex, the […]

Structure (SMILES)	Relative Specific Viscosity (η/η0)^1/3 (CT-DNA [1]; R = [Complex]/[DNA] = 0.2)	Relative Specific Viscosity (η/η0)^1/3 (CT-DNA [1]; R = [Complex]/[DNA] = 0.4)	Relative Specific Viscosity (η/η0)^1/3 (CT-DNA [1]; R = [Complex]/[DNA] = 0.6)	Relative Specific Viscosity (η/η0)^1/3 (CT-DNA [1]; R = [Complex]/[DNA] = 0.8)	Relative Specific Viscosity (η/η0)^1/3 (CT-DNA [1]; R = [Complex]/[DNA] = 1.0)	Slope of (η/η0)^1/3 vs [Compound]/[DNA] (CT-DNA [1])	% Inhibition, hydroxyl radical ([2]; 40 µM) [%]	% Inhibition, hydroxyl radical ([2]; 80 µM) [%]	% Inhibition, hydroxyl radical ([2]; 120 µM) [%]	% Inhibition, hydroxyl radical ([2]; 160 µM) [%]	% Inhibition, hydroxyl radical ([2]; 200 µM) [%]	% Inhibition, hydroxyl radical ([2]; 240 µM) [%]	Inhibition % [3] [%]	Kb, Method II (CT-DNA [4]) [M⁻¹]	Kb, Method III (CT-DNA [4]) [M⁻¹]	Kred/Koxi (Calcd) (CT-DNA [4])	Kred/Koxi Found (I) (CT-DNA [4])	Kb, Method I, Oxi (CT-DNA [4]) [M⁻¹]	Kb, Method I, Red (CT-DNA [4]) [M⁻¹]	S (binding site size) (CT-DNA [4]) [bp]	other results
[Cu+2].[O-]c1ccccc1N=Cc1ccc(N2CCOCC2)cc1.[O-]c1ccccc1N=Cc1ccc(N2CCOCC2)cc1.c1cnc2c(c1)ccc1cccnc12 [(1b), [Cu^II(L)2(phen)]]	0.82	1.10	1.25	1.45	1.71	1.0805	09.94	18.86	32.85	39.84	51.93	62.05	45	35514	21695	3.2434	1.2053	17320	20878	0.267	pIC50 ([2]; read-out: IC50, hydroxyl radical inhibition): 3.70; diameter of clear zone inhibition [3]: 11 mm
[O-]c1ccccc1N=Cc1ccc(N2CCOCC2)cc1.[O-]c1ccccc1N=Cc1ccc(N2CCOCC2)cc1.[Zn+2].c1cnc2c(c1)ccc1cccnc12 [(2b), [Zn^II(L)2(phen)]]	0.80	0.91	1.16	1.21	1.53	0.840	08.33	17.12	27.05	36.68	47.03	57.83	45	32242	18300	3.7609	1.1168	14610	16317	0.248	diameter of clear zone inhibition [3]: 11 mm
Oc1ccccc1N=Cc1ccc(N2CCOCC2)cc1 [(HL), 2-(4-morpholinobenzylideneamino)phenol]	0.61	0.67	0.75	0.85	1.01	0.462 and 0.4616	07.26	14.43	25.52	33.86	40.73	50.68	45	2477	4837	2.0964	1.1125	5280	5874	0.446	zone of inhibition at 100 µM ([3]; read-out: diameter of clear zone inhibition): 11 mm
